Experimental data as given in patent US10662451B2, “Microorganisms and methods for the coproduction 1,4-butanediol and gamma-butyrolactone” (priority 2009, dated 2020).

Tests used:
[1] = test system: branched chain alpha-ketoacid decarboxylase (BCKA); conditions: cited from earlier work
[2] = target: T1, adh1 from Geobacillus thermoglucosidasius M10EXG (Geobacillus sp. M10EXG, UniProt Q6RS93); experiment: ADH enzyme assay of E. coli expressed Adh1 enzyme (084); assay type: biochemical; conditions: reduction by Adh1 enzyme (084) expressed in E. coli
T1 sequence (Q6RS93 1-340): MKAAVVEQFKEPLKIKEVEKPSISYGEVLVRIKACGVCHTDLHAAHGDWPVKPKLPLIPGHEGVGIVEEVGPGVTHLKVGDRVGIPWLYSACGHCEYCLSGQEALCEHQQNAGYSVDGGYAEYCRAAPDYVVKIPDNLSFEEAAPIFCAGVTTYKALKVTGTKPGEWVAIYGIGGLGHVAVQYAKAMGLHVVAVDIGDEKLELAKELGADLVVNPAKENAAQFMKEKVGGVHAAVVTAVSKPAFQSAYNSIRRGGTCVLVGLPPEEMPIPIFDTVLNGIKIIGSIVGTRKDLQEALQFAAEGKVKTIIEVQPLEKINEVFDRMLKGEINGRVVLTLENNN
Procedure: Alcohol (ADH) and aldehyde (ALD) dehydrogenase was assayed in the reductive direction using a procedure adapted from several literature sources (Durre et al., FEMS Microbiol. Rev. 17:251-262 (1995); Palosaari and Rogers, J. Bacteriol. 170:2971-2976 (1988) and Welch et al., Arch. Biochem. Biophys. 273:309-318 (1989)). The oxidation of NADH is followed by reading absorbance at 340 nm every four seconds for a total of 240 seconds at room temperature. The reductive assays were performed in 100 mM MOPS (adjusted to pH 7.5 with KOH), 0.4 mM NADH, and from 1 to 50 μl of cell extract. The reaction is started by adding the following reagents: 100 μl of 100 mM acetaldehyde or butyraldehyde for ADH, or 100 μl of 1 mM acetyl-CoA or butyryl-CoA for ALD. The Spectrophotometer is quickly blanked and then the kinetic read is started. The resulting slope of the reduction in absorbance at 340 nm per minute, along with the molar extinction coefficient of NAD(P)H at 340 nM (6000) and the protein concentration of the extract, can be used to determine the specific activity.
Multiple alcohol dehydrogenases were screened for their ability to catalyze the reduction of 4-hydroxybutanal to 14-BDO.
The Adh1 enzyme (084) expressed very well from its native gene in E. coli (see FIG. 8A).

[3] = test system: aminotransferase from Leishmania mexicana; conditions: activity considered 100% on tyrosine; cited from earlier work

Row | SMILES | aminotransferase activity [3] | further results
1 | O=C(O)CCC(=O)C(=O)O [2-Oxoglutarate] |  | decarboxylation activity relative to other branched-chain substrates [1]: 5%
2 | O=CCCCO [Gene 4HB-aldehyde, 4-hydroxybutyraldehyde] |  | Km [2]: 4000 µM
3 | CCCC=O [butyraldehyde] |  | Km [2]: 1200 µM
4 | CC(C)C[C@H](N)C(=O)O [leucine] | 25% | 
5 | CSCC[C@H](N)C(=O)O [methionine] | 25% | 
6 | N[C@@H](Cc1ccccc1)C(=O)O [phenylalanine] | 90% | 
7 | N[C@@H](Cc1c[nH]c2ccccc12)C(=O)O [tryptophan] | 85% | 
8 | N[C@@H](Cc1ccc(O)cc1)C(=O)O [tyrosine] | 100% | 
